Assay results from patent US9216964B2, “Hedgehog pathway modulators” (Novartis AG, priority 2008, dated 2015).
pIC50: −log10 of the molar value. Like-named read-outs stand apart in the source and are kept apart here.

Tested on: hedgehog signaling pathway
Assay: Gli-Luc Reporter Assay for Hh Pathway Inhibition (TMHh-12 cells, pTA-8×Gli-Luc reporter)
Assay type: cell-based, Mouse
Details: for pIC50: read-out: IC50 Ranges; for IC50: TMHh12, Ag1.5 1 nM, read-out: Hedgehog Inhibition IC50 (nM) (Ag1.5 1 nM)
Experimental: Compounds of the present invention are assayed to evaluate their capacity to inhibit the hedgehog signaling pathway.
Gli-Luc Reporter Assay for Hh Pathway Inhibition
Mouse TM3 cells (obtained from American Type Culture Collection, ATCC, Manassas, Va.) are cultured in DMEM/F12 medium (Gibco/Invitrogen, Carlsbad, Calif.) supplemented with 5% heat inactivated horse serum and 2.5% FBS (Gibco/Invitrogen, Carlsbad, Calif.), 50 unit/mL penicillin and 50 μg/mL of streptomycin (Gibco/Invitrogen, Carlsbad, Calif.) at […] with 5% CO2 in air atmosphere. TM3 cells were transfected with pTA-8×Gli-Luc reporter plasmid. A stably transfected clone termed TMHh-12 was selected. […] To evaluate the IC50s of the antagonists, 8000 TMHh-12 cells were plated into each wells in 384-well plates with 50% DMEM/F12 medium supplemented with 2% FBS. After 12 hours, Hh pathway is activated by adding recombinant mouse Shh protein (expressed in E. coli, 8 μg/mL) or by adding Smo agonists. The testing compounds are added into plates with different concentrations. After 48 hours, the firefly luciferase luciferase activities are assayed with the Bright-Glo™ Luciferase Assay System (Promega, Madison, Wis.). The IC50 is measured when the effect of the compound reduces the luminescence signal by 50%. Toxicity of these compounds are evaluated in TM3 cells using CellTiter Glo assays or by TM3-Luc cell line (a TM3 cell stably transfected with a constitutive luciferase expression vector).

[1] = Mus musculus, TMHh12, enzymatic and cellular assays for the inhibition of hedgehog signaling pathways

CCOc1ccc(-c2nc(Nc3cccc4c3CCN(C3CS(=O)(=O)C3)C4)ccc2C)nn1 [Compound 329]
pIC50 [1]: 7.00 to 8.00

CC1(C(=O)N2CCc3c(cccc3Nc3ccc(Cl)c(-c4ncc(-c5ccccc5)[nH]4)c3)C2)CC1 [Compound 73]
IC50 (Mus musculus): 0.5 nM | pIC50 [1]: 9.00 to 12.00

Cc1ccc(Nc2cccc3c2CCN(C2CCS(=O)(=O)C2)C3)cc1-c1ncccc1F (stereo not drawn) [Compound 268]
pIC50 [1]: 9.00 to 12.00

Cc1ccc(Nc2cccc3c2CCN(S(C)(=O)=O)C3)cc1-c1ccccc1 [Compound 115]
IC50 (Mus musculus): 362 nM | pIC50 [1]: 6.00 to 7.00

Cc1ccc(Nc2cccc3c2CCN(S(C)(=O)=O)C3)cc1Oc1ccccn1 [Compound 214]
pIC50 [1]: 6.00 to 7.00

COc1cncc(-c2cc(Nc3cccc4c3CCN(S(C)(=O)=O)C4)ccc2C)n1 [Compound 255]
pIC50 [1]: 6.00 to 7.00

Cc1ccc(-c2nc(Nc3cccc4c3CCN(CCS(C)(=O)=O)C4)ccc2Cl)nc1 [Compound 278]
pIC50 [1]: 8.00 to 9.00

O=C([C@@H](O)CO)N1CCc2c(cccc2Nc2ccc(Cl)c(-c3nc(-c4ccccc4)c[nH]3)c2)C1 [Compound 27]
pIC50 [1]: 9.00 to 12.00

Cc1ccc(Nc2cccc3c2CCN(S(C)(=O)=O)C3)cc1-c1ncc(-c2ccc(C#N)cc2)[nH]1 [Compound 101]
pIC50 [1]: 9.00 to 12.00

O=C(O)CN1CCc2c(cccc2Nc2ccc(Cl)c(-c3nc(-c4ccccc4)c[nH]3)c2)C1 [Compound 53]
pIC50 [1]: 7.00 to 8.00

CC(C(=O)O)N1CCc2c(cccc2Nc2ccc(Cl)c(-c3ncc(-c4ccccc4)[nH]3)c2)C1 (stereo not drawn) [Compound 58]
pIC50 [1]: 8.00 to 9.00

Clc1ccc(Nc2cccc3c2CCN(C2CC2)C3)cc1-c1ncc(-c2ccccc2)[nH]1 [Compound 82]
pIC50 [1]: 9.00 to 12.00

Cc1ccc(-c2cnc(-c3cc(Nc4cccc5c4CCN(S(C)(=O)=O)C5)ccc3C)[nH]2)cn1 [Compound 91]
pIC50 [1]: 8.00 to 9.00

CC(=O)c1ccc(-c2cc(Nc3cccc4c3CCN(S(C)(=O)=O)C4)ccc2C)cc1 [Compound 114]
pIC50 [1]: 6.00 to 7.00

COc1ccc(-c2cc(Nc3cccc4c3CCN(S(C)(=O)=O)C4)ccc2C)nc1 [Compound 174]
pIC50 [1]: 9.00 to 12.00

Cc1ccc(Nc2cccc3c2CCN(CC(C)(C)F)C3)cc1-c1ccc(C#N)cn1 [Compound 198]
pIC50 [1]: 9.00 to 12.00

Cc1ccc(Nc2cccc3c2CCN(S(C)(=O)=O)C3)cc1-c1cnc(N(C)C)nc1 [Compound 124]
IC50 (Mus musculus): 135 nM | pIC50 [1]: 6.00 to 7.00

COc1cnc(-c2cc(Nc3cccc4c3CCN(S(C)(=O)=O)C4)ccc2C)cn1 [Compound 190]
pIC50 [1]: 8.00 to 9.00

Cc1ccc(Nc2cccc3c2CCN(CC(C)(C)O)C3)cc1C(=O)Nc1ccccc1 [Compound 222]
pIC50 [1]: 8.00 to 9.00

CC1(CN2CCc3c(cccc3Nc3ccc(Cl)c(-c4ncc(-c5ccccc5)[nH]4)c3)C2)CC1 [Compound 95]
pIC50 [1]: 9.00 to 12.00

Cc1ccc(-c2nc(Nc3cccc4c3CCN(S(C)(=O)=O)C4)ccc2Cl)nc1 [Compound 273]
pIC50 [1]: 9.00 to 12.00

Cc1ccc(-c2cc(Nc3cccc4c3CCN(S(C)(=O)=O)C4)ccc2C)nc1 [Compound 169]
pIC50 [1]: 9.00 to 12.00

CCOc1ccc(-c2nc(Nc3cccc4c3CCN(C3CCS(=O)(=O)C3)C4)ccc2C)nn1 (stereo not drawn) [Compound 334]
pIC50 [1]: 7.00 to 8.00

COc1ccc(-c2cc(Nc3cccc4c3CCN([C@H]3CCS(=O)(=O)C3)C4)ccc2C)nn1 [Compound 322]
pIC50 [1]: 8.00 to 9.00

CS(=O)(=O)N1CCc2c(cccc2Nc2cc(-c3ccc(C#N)cc3)c(Cl)cn2)C1 [Compound 171]
pIC50 [1]: 6.00 to 7.00

C[C@H](C(=O)O)N1CCc2c(cccc2Nc2ccc(Cl)c(-c3nc(-c4ccccc4)c[nH]3)c2)C1 [Compound 78]
pIC50 [1]: 8.00 to 9.00

Clc1ccc(Nc2cccc3c2CCN(C2CCCCCC2)C3)cc1-c1ncc(-c2ccccc2)[nH]1 [Compound 30]
IC50 (Mus musculus): 1.2 nM | pIC50 [1]: 8.00 to 9.00

COc1ccc(-c2cc(Nc3cccc4c3CCN(C3CCS(=O)(=O)C3)C4)ccc2C)nn1 (stereo not drawn) [Compound 256]
pIC50 [1]: 9.00 to 12.00

Cc1ccc(Nc2cccc3c2CCN(S(C)(=O)=O)C3)cc1-c1nc2cc(F)ccc2[nH]1 [Compound 61]
pIC50 [1]: 9.00 to 12.00

O=S1(=O)CCC(N2CCc3c(cccc3Nc3ccc(Cl)c(-c4ncc(-c5ccccc5)[nH]4)c3)C2)CC1 [Compound 3]
IC50 (Mus musculus): 0.06 nM | pIC50 [1]: 9.00 to 12.00

CS(=O)(=O)N1CCc2c(cccc2Nc2cnc(Cl)c(-c3ccc(C#N)cc3)c2)C1 [Compound 175]
pIC50 [1]: 7.00 to 8.00

O=C(O)CC(=O)N1CCc2c(cccc2Nc2ccc(Cl)c(-c3nc(-c4ccccc4)c[nH]3)c2)C1 [Compound 44]
pIC50 [1]: 8.00 to 9.00

Cc1ccc(Nc2cccc3c2CCN(CCS(C)(=O)=O)C3)cc1-c1ncccc1F [Compound 260]
pIC50 [1]: 8.00 to 9.00

Cc1ccc(Nc2cccc3c2CCN(C2CS(=O)(=O)C2)C3)cc1-c1ncc(F)cc1F [Compound 325]
pIC50 [1]: 9.00 to 12.00

Cc1ccc(Nc2cccc3c2CCN(S(C)(=O)=O)C3)cc1C(=O)N(CCO)c1ccccc1 [Compound 194]
pIC50 [1]: 6.00 to 7.00

Cc1ccc(Nc2cccc3c2CCN(S(C)(=O)=O)C3)cc1-c1ccc(-c2ccco2)cc1 [Compound 121]
pIC50 [1]: 6.00 to 7.00

Cc1ccc(-c2cc(Nc3cccc4c3CCN(CC(C)(C)C)C4)ccc2C)nc1 [Compound 213]
pIC50 [1]: 8.00 to 9.00

O=C(O)C1(C(=O)N2CCc3c(cccc3Nc3ccc(Cl)c(-c4ncc(-c5ccccc5)[nH]4)c3)C2)CCC1 [Compound 69]
IC50 (Mus musculus): 1.4 nM | pIC50 [1]: 8.00 to 9.00

CCOc1cnc(-c2cc(Nc3cccc4c3CCN(S(C)(=O)=O)C4)ccc2C)cn1 [Compound 314]
pIC50 [1]: 9.00 to 12.00

Cc1ccc(Nc2cccc3c2CCN(C2CCS(=O)(=O)C2)C3)cc1-c1ncc(F)cc1F (stereo not drawn) [Compound 338]
pIC50 (enzymatic and cellular assays for the inhibition of hedgehog signaling pathways): 9.00 to 12.00

Cc1ccc(Nc2cccc3c2CCN([C@H]2CCS(=O)(=O)C2)C3)cc1-c1ncccc1F [Compound 286]
pIC50 [1]: 9.00 to 12.00

CCOc1cnc(-c2nc(Nc3cccc4c3CCN(S(=O)(=O)C(C)C)C4)ccc2C)cn1 [Compound 336]
pIC50 [1]: 7.00 to 8.00

Cc1ccc(-c2nc(Nc3cccc4c3CCN(S(C)(=O)=O)C4)ccc2C)nc1 [Compound 274]
pIC50 [1]: 9.00 to 12.00

CN(C)Cc1ccc(Nc2cccc3c2CCN(S(C)(=O)=O)C3)cc1-c1ccc(C#N)cc1 [Compound 179]
pIC50 [1]: 6.00 to 7.00

CCN1CCC(N2CCc3ccc(Nc4ccc(Cl)c(-c5nc(-c6ccccc6)c[nH]5)c4)cc3C2)CC1 [Compound 347]
pIC50 [1]: 7.00 to 8.00

Cc1ccc(Nc2cccc3c2CCN(S(C)(=O)=O)C3)cc1OCc1ccccn1 [Compound 215]
pIC50 [1]: 7.00 to 8.00

COc1ccc(-c2cc(Nc3cccc4c3CCN(S(C)(=O)=O)C4)ccc2C)cn1 [Compound 98]
pIC50 [1]: 7.00 to 8.00

CNS(=O)(=O)N1CCc2c(cccc2Nc2ccc(Cl)c(-c3ncc(-c4ccccc4)[nH]3)c2)C1 [Compound 25]
pIC50 [1]: 8.00 to 9.00

Cc1ccc(-c2nc(Nc3cccc4c3CCN(C3CS(=O)(=O)C3)C4)ccc2C)nc1 [Compound 285]
pIC50 [1]: 7.00 to 8.00

Cc1ccc(Nc2ncnc3c2CCN(CCS(C)(=O)=O)C3)cc1-c1cc2ccccc2cn1 [Compound 305]
pIC50 [1]: 7.00 to 8.00

Cc1nc(-c2ccc(-c3cc(Nc4cccc5c4CCN(S(C)(=O)=O)C5)ccc3C)cc2)cs1 [Compound 120]
pIC50 [1]: 7.00 to 8.00

Cc1ccc(Nc2cccc3c2CCN(S(C)(=O)=O)C3)cc1-c1cnn(C)c1 [Compound 128]
pIC50 [1]: 6.00 to 7.00

Cc1ccc(Nc2cccc3c2CCN(CCS(C)(=O)=O)C3)cc1-c1ccc(C(F)(F)F)cn1 [Compound 259]
pIC50 [1]: 8.00 to 9.00

CS(=O)(=O)N1CCc2c(cccc2Nc2cc(-c3nc4ccccc4[nH]3)c(Cl)cn2)C1 [Compound 126]
pIC50 [1]: 7.00 to 8.00

O=C1CCC(N2CCc3c(cccc3Nc3ccc(Cl)c(-c4ncc(-c5ccccc5)[nH]4)c3)C2)CC1 [Compound 33]
IC50 (Mus musculus): 0.7 nM | pIC50 [1]: 9.00 to 12.00

CS(=O)(=O)N1CCc2c(ccnc2Nc2ccc(Cl)c(-c3ncc(-c4ccccc4)[nH]3)c2)C1 [Compound 133]
pIC50 [1]: 9.00 to 12.00

Cc1ccc(Nc2cccc3c2CCN(S(C)(=O)=O)C3)cc1-c1cc2ccccc2[nH]1 [Compound 151]
pIC50 [1]: 7.00 to 8.00

Cc1ccc(Nc2cccc3c2CCN(CCS(C)(=O)=O)C3)nc1-c1ccccn1 [Compound 311]
pIC50 [1]: 7.00 to 8.00

Cc1ccc(Nc2cccc3c2CCN(S(C)(=O)=O)C3)cc1-c1ccc(C(=O)NCCO)cc1 [Compound 145]
pIC50 [1]: 6.00 to 7.00

Cc1ccc(Nc2cccc3c2CCN(S(C)(=O)=O)C3)cc1-c1nc2ncncc2[nH]1 [Compound 63]
pIC50 [1]: 7.00 to 8.00

Cc1ccc(Nc2cccc3c2CCN(CCS(C)(=O)=O)C3)cc1-c1ccccn1 [Compound 262]
pIC50 [1]: 8.00 to 9.00

Cc1ccc(Nc2cccc3c2CCN(C2CCS(=O)(=O)C2)C3)cc1-c1ccccn1 (stereo not drawn) [Compound 265]
pIC50 [1]: 9.00 to 12.00

Cc1ncc(Nc2cccc3c2CCN(S(C)(=O)=O)C3)cc1C(=O)Nc1ccccc1 [Compound 225]
pIC50 [1]: 8.00 to 9.00

Cc1ccc(-c2cc(Nc3cccc4c3CCN(CC(F)(F)CO)C4)ccc2C)nc1 [Compound 212]
pIC50 [1]: 9.00 to 12.00

Cc1ccc(-c2cc(Nc3cccc4c3CCN(C[C@H](O)CO)C4)ccc2C)nn1 [Compound 209]
pIC50 [1]: 6.00 to 7.00

Cc1ccc(Nc2cccc3c2CCN(S(C)(=O)=O)C3)cc1-c1ccc(Cl)cn1 [Compound 173]
pIC50 [1]: 9.00 to 12.00

CC(C)(C(=O)O)N1CCc2c(cccc2Nc2ccc(Cl)c(-c3nc(-c4ccccc4)c[nH]3)c2)C1 [Compound 65]
pIC50 [1]: 8.00 to 9.00

COc1cc2[nH]c(-c3cc(Nc4cccc5c4CCN(S(C)(=O)=O)C5)ccc3C)nc2cn1 [Compound 110]
pIC50 [1]: 7.00 to 8.00
